The source of these data is US20050176804A1, “Method and material for free radical scavenging in human tissue” (priority 2003, published 2005).

Data set [1] concerns nitric oxide synthase (iNOS). Nature of the data set: iNOS suppression, native and activated states. To be noted: 3-12 μM. It counts as cell-based. From the text: Following previous leads on indoleacetyl phenylalanine's finding as a potent anti-free radical substance, additional experimental evidence was sought to strengthen the earlier findings. Focus at this time was placed on nitric oxide synthase (iNOS), which is the key enzyme for generating a destructive oxidant, nitric oxide. Since this enzyme existed in native and activated states, it was pertinent to check both the enzyme activities to ascertain the inhibitory action of indoleacetyl phenylalanine.

For data set [2], the system named is human skin fibroblast cultures. Nature of the data set: Total ROS generation in skin fibroblasts, DCFDA fluorescent probe. The data set is classed as cell-based. As for the experimental part:
(§1) The anti-oxidative action of indoleacetyl phenylalanine was tested against reactive oxygen species (ROS) using human skin fibroblast cultures. Total ROS generation in skin fibroblasts was measured using the fluorescent dye dichlorofluorescin diacetate (DCFDA) as a probe. DCFDA readily diffuses through cell membranes and is enzymatically hydrolyzed by intracellular esterase to become non-fluorescent dichlorofluorescin (DCFH), which is then oxidized by reactive species (oxidants) to highly fluorescent […] (DCF). Increased antioxidant activity within a cell is marked by a reduction in the fluorescent DCF.
(§2) Positive results were obtained with fibroblasts incubated in both serum-containing and serum-free media (serum proteins, e.g., albumin, can act as antioxidants and skew test results).

Data set [3] has as its target T1, fibroblast COX-2 enzymes (Homo sapiens, UniProt P35354).
T1 construct: endogenous in cells
T1 sequence (P35354 18-604): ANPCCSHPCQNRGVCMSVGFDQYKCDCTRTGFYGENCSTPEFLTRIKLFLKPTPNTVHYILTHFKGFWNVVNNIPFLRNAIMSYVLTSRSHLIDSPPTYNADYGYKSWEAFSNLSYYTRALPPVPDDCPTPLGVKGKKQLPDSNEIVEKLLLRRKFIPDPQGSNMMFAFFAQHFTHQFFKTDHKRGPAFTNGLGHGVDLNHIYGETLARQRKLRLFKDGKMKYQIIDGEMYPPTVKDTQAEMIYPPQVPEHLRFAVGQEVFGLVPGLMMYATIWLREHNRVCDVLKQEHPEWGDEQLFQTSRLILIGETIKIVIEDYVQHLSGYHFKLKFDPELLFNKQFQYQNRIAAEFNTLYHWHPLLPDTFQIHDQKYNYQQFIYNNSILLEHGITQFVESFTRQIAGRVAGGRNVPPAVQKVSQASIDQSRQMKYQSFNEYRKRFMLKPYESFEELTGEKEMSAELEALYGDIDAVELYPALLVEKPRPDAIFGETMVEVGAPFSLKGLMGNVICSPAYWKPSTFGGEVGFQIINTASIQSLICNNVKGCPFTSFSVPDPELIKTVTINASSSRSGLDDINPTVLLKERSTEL
Nature of the data set: Inhibition of fibroblast COX-2 enzymes. The data set is classed as cell-based.

Data set [4] concerns cultured human skin fibroblasts. Nature of the data set: RNS suppression, total nitrate plus nitrite (Nox) generation, Greiss assay. The following applies: 60 μg/ml. The data set is classed as cell-based. As for the experimental part:
In addition to ROS activity, indoleacetyl phenylalanine was also tested against radical nitrogen species (RNS) in cultured human skin fibroblasts. To estimate suppression of RNS, total nitrate plus nitrite (Nox) generation was measured using the Greiss assay method. At a concentration of 60 μg/ml, indoleacetyl phenylalanine decreased RNS generation by 33% as compared to an untreated control.

For data set [5], the system named is catalase. In words: Catalase gene expression by Western blotting. The data set is classed as cell-based. To be noted: 15 and 30 μM, particularly increased at 30 μM; human skin fibroblasts. As for the experimental part: (§3) The antioxidant effects of indoleacetyl phenylalanine was also tested with respect to the production of antioxidant enzymes by means of differential gene expression in human skin fibroblasts. The experiment was conducted with respect to gene expression related to two major defense enzymes, Superoxide Dismutase (SOD) and catalase. […] Gene expression for both enzymes was stimulated at indoleacetyl phenylalanine concentrations of 15 and 30 μM.
In general terms: Immunoblotting shows a protein as a band on a membrane.

The test system of data set [6] is fibroblasts. In words: Cell proliferation / cell viability, MTT method. It counts as cell-based. As for the experimental part:
Furthermore, to investigate the effects of indole derivatives on cell proliferation as a biological marker, cell viability was assayed using the MTT method.
(In general: Tetrazolium assays rely on reduction of a dye to a coloured formazan, in cell work by metabolically active cells.)

Data set [7] deals with skin fibroblasts. Nature of the data set: t-butyl hydroperoxide (t-BHP) induced ROS activity. It counts as cell-based, human. The following applies: serum-free media. As for the experimental part: as §1
Data set [8] has as its system Cu/ZnSOD. In words: Cu/ZnSOD gene expression by Western blotting. The data set is classed as cell-based. To be noted: 15 and 30 μM; human skin fibroblasts. As for the experimental part: as §3
The test system of data set [9] is skin fibroblasts. In words: Cell viability of skin fibroblasts during ROS test. The data set is classed as cell-based, human. As for the experimental part:
as §2

Take `O=C(Cc1c[nH]c2ccccc12)N[C@@H](Cc1ccccc1)C(=O)O` [indoleacetyl phenylalanine]: the “suppression of iNOS, native state” value in [1] is listed as “suppressed iNOS”. Besides, in data set [1] (activated by 5 μM t-BHP), the “suppression of iNOS gene expression activity, activated state” value is listed as “able to suppress iNOS gene expression activity”. Further, the “antioxidant activity toward ROS generation” value is recorded as “significant antioxidant activity” in data set [2] (10% serum media, 15, 30, and 60 μM); “exhibited antioxidant activity” in data set [2] (serum-free media, 7.5, 15, and 30 μM). Besides, the “anti-inflammatory effect, COX-2 inhibition” value in [3] is given as “inhibition of fibroblast COX-2 enzymes”. The “decrease of RNS generation compared to untreated control” value in [4] turned out to be 33%. The “gene expression for production of catalase (protein amount)” value in data set [5] is “increased gene expression”. For the same molecule, the “stimulation of cell proliferation compared to untreated controls” value in data set [6] (MTT method) is listed as 30%. In addition, the “lowest concentration giving dose-dependent fibroblast proliferation” value in [6] (four-day incubation period) came to 2 µM. The “antioxidant activity against t-BHP induced ROS activity” value in [7] is given as “showed antioxidant activity”. For the same molecule, the “gene expression for production of Cu/ZnSOD (protein amount)” value in [8] is recorded as “increased gene expression”. In [9], the “effect on cell viability” value is “without affecting cell viability”.
